According to patent US10213494B2, “Treatment of synucleinopathies” (The Brigham and Women's Hospital, Inc., priority 2007, dated 2019):

Key:
[1] = system: α-synuclein protein (wild-type, human) in MES23.5 cells; experiment: Sandwich ELISA of intracellular α-synuclein in MES23.5 cells co-transfected with wild-type human SNCA cDNA and lysosomal enzyme cDNA; type: cell-based; conditions: for intracellular α-synuclein level, % of control levels: n=2
Protocol: Sera from six rabbits were raised and affinity-purified at Open Biosystems, Inc. (openbiosystems.com) against recombinant, full-length human αS. Recombinant αS had been HPLC- and MS-characterized and subjected to amino acid composition and protein concentration analyses. For ELISA, 384-well MaxiSorp plates (Nunc, Inc) were coated with 50 μl/well capturing polyclonal Ab (hSA-2) diluted in coating buffer (NaHCO3 with 0.2% NaN3, pH 9.6). Following washes with PBS/0.05% Tween-20 (PBS-T), plates were blocked for 2 hours at 37° C. in blocking buffer (1.125% fish skin gelatin; PBS-T). After 4 washes, samples were loaded and incubated at 4° C. for 12 hours. Biotinylated Syn-1 mAb (as the assaying Ab) was generated using 200 μg Sulfo-NHS-LC Biotin (Pierce), diluted in blocking buffer and added to the plate for 2 hours at 37° C. Following 4 washes, ExtrAvidin phosphatase (Sigma) diluted in blocking buffer was applied for 1 hr at 37° C. Color development was carried out by using Fast-p-Nitrophenyl Phosphate (Sigma) and monitored kinetically at OD 405 nm every 5 minutes for up to 60 minutes.
To optimize a ‘DNA: LIPOFECTAMINE® 2000’ ratio with low cell toxicity, MES23.5 cells were transfected with either 0.25, 0.5 or 1 μg αS-encoding, wild-type, human SNCA cDNA plus empty vector cDNA up to a total of 5.5 μg DNA per 10 cm dish. 24 hours after transfection, cell lysates were harvested as described above. For serial dilutions of cell lysates, blocking buffer containing 0.5% lysate from vector-transfected wells was used as diluent, which was also used to create the blank and the corresponding standard curve of recombinant human αS. Saturation kinetics were examined for identification of time point(s) where standards and sample dilutions were in the log phase.
MES cells were transfected with 0.5 μg per 10 cm dish of αS-encoding SNCA cDNA-carrying plasmid, plus 5 μg per 10 cm dish of wild-type or mutant, human GBA-encoding plasmid. The GBA variants used were wild type, N370S, D409H, L444P, E235A, and E340A. These 5 GBA mutants were created by site-directed mutagenesis, using the Quickchange® kit (Stratagene), and sequence-verified. The N370S, D409H and L444P are known to occur (in the homozygous or compound heterozygous state) in Gaucher disease in the heterozygous state in Parkinson Disease patients and/or patients with dementia with Lewy bodies. The E235A and E340A mutant GBA proteins are not known to occur in people.
24 hours after transfection, MES cells were lysed as described above and all lysates were analyzed by ELISA. […] This is in contrast to the result observed in Example 5 above. The observed discrepancy can reflect the differences in total DNA transfected in the two paradigms (FIG. 2B; FIG. 2C versus FIG. 4), thereby leading to changes in the DNA:LIPOFECTAMINE® 2000 ratio, and in the role of co-expressed prosaposin (saposin C). It is therefore conceivable that wild-type GBA can have variable effects on αS levels in these MES23.5 cells, depending on the rate of αS import into lysosomes and the composition as well as activation state of more than one lysosomal enzyme.
MES23.5 cells were transfected with 0.5 μg per 10 cm dish of an αS-encoding, wild-type, human SNCA cDNA-carrying plasmid (referred to as MES-hSNCA WT cells in the Western blot shown in FIG. 6), plus either 1.25, 2.5 or 5 μg per 10 cm dish of a human Cathepsin D-encoding CTSD cDNA plasmid, which was purchased from OriGene Technologies, Inc., and was under the control of a CMV promoter. The Cathepsin D clone was fully sequence-verified after isolation and maxiprep. Each transfection arm was balanced with empty vector DNA up to a total of 5.5 μg DNA per 10 cm dish. 24 hours after transfection, cells were lysed, and the resulting lysates were analyzed by the sandwich ELISA described herein. […]

MES-syn cells = experiment: MTT assay of cellular metabolism; type: cell-based, rodent; conditions: CTSD cDNA 5 μg/10 cm dish; control vector 100+/−4.05%; n=6
Protocol: To confirm that the effect of Cathepsin D on lowering of αS in MES23.5 cells was specific and was not caused by a general decrease in cellular metabolism and integrity, the MTT and LDH assays were performed on MES-syn cells that had been co-transfected with the highest amount of Cathepsin D-encoding cDNA (5 μg/10 cm dish). Lysis of cells with 0.1% Triton-X® 100 served as a positive control, representing maximal cell death.

[2] = system: α-synuclein protein in MES23.5 cells; experiment: Western blot of α-synuclein in co-transfected MES23.5 cells; type: cell-based, human; conditions: co-expression with αS for 24 hours; syn-1, 7071AP and hSA-2 antibodies
Protocol: Cells were transfected with 0, 0.25, 0.5, 1, 5, and 10 μg (per 10 cm dish) of plasmid. 24 hours later, cells were washed with Tris-buffered saline and lysed in 140 mM NaCl, 50 mM Tris-Hcl, pH 8.0, 1 mM EDTA, 0.5% Triton-X100, and 1× protease inhibitors. Lysates were centrifuged at 100,000×g for 30 min at 4° C.; the top 2/3 of supernatants were removed and frozen in siliconized tubes at −80° C. Samples were run on SDS/PAGE, using 1 mM DTT as the reducing agent. Expression of the αS protein was confirmed at 24 hours post-transfection by Western blotting, where cell lysates were probed with a monoclonal antibody against αS protein (syn-1 antibody, BD Transduction Labs).
MES23.5 cells were transfected with 0.5 μg αS-encoding SNCA cDNA per 10 cm dish plus either 1.25, 2.5 or 5 μg (low, medium, or high) GBA-encoding cDNA in the absence or presence of 5 μg of Prosaposin-encoding cDNA. All arms of the experiment were balanced up to a total of 10.5 μg cDNA per 10 cm dish using empty vector cDNA. The GBA- and Prosaposin-encoding cDNA plasmids under a CMV promoter, as well as the pCMV-XL5 empty vector were purchased from OriGene Technologies, Inc (clones had been fully sequence-verified after isolation and a maxiprep). 24 hours later, cells were lysed and probed for GBA and αS protein levels. The upper panel in of FIG. 2B3 is a representation of a Western Blot indicating expression of GBA protein in the absence and presence of co-transfected prosaposin. GBA was probed using the monoclonal antibody 8E4. GBA over-expression occurred in a slightly gene-dosage dependent way in the absence of prosaposin. In the presence of prosaposin over-expression, the GBA signal itself was decreased. […]

“cathepsin D: human lysosomal aspartyl protease expressed from CTSD cDNA plasmid under a CMV promoter” was tested, and the “intracellular α-synuclein level, % of control levels” value ([1]; cathepsin D cDNA 1.25 μg/10 cm dish, 24 hours) was 68+/−17.7%, the “intracellular α-synuclein level, % of control levels” value ([1]; cathepsin D cDNA 2.5 μg/10 cm dish, 24 hours) was 53+/−16.8% and the “intracellular total α-synuclein level, % of control levels” value ([1]; cathepsin D cDNA 5 μg/10 cm dish, 24 hours, n=11) was 25.3+/−7.0%. For the same substance, the “αS-lowering effect, percent of total intracellular αS concentration detectable” value ([1]; cathepsin D co-expression) was ≤ 75%, the MTT signal (MES-syn cells) was 101.3+/−3.91% and the “generation of lower or higher molecular weight αS species” value [2] was “did not lead to the generation of any visible lower or higher molecular weight species”.
